{
  "source": "patent US9980940B2",
  "about": "“Composition for the treatment of neuropathies and/or neuropathic pain” (Kolinpharma S.p.A., priority 2014, dated 2018)",
  "key": {"TNFα [1]": {"system": "TNFα", "assay": "ELISA of TNFα after LPS, Example 3", "assay_type": "cell-based, human", "method": "(§1) Possible anti-inflammatory activity of the individual components and synergy between them in THP-1 cells was evaluated after 24 hours of treatment and stimulation with a known pro-inflammatory agent (LPS), measuring expression of IL-1β and TNFα using an ELISA kit (Thermo Fisher Scientific, Inc.).\n(§2) As preparation for the test, the THP-1 cells were sown uniformly in a 96-well plate at a density of 5×10^4 cells/well and treated with the maximum concentrations found to be non-cytotoxic in the MTT assay; untreated cells were used as negative control. Treatment was carried out at 37° C. at 5% CO2 for 20 h; then the sample was stimulated with LPS (component of the bacterial outer membrane, considered to be an inflammatory agent) for 4 hours.\n(§3) At the end of the treatment, the supernatants were collected and used for coating a pretreated ELISA plate, supplied with the kit.\n(§4) For analysis of the expression of both markers under examination (IL-1β and TNFα), a special kit is used that is based on the “sandwich” ELISA system in which a 96-well plate is coated with a monoclonal antibody specific to the particular cytokine.\nThe standards, prepared on the basis of the instructions in the protocol and used for constructing the calibration curve, and the samples are added to the wells and the cytokine of interest binds the capture antibody immobilized on the bottom of the well. […] Addition of a solution of sulphuric acid turns the colour of the solution from blue to yellow, blocking the reaction and allowing accurate reading of the absorbance of the samples at 450 nm.\nThe absorbance was then read at 450 and 550 nm using a microplate reader (Tecan Sunrise). The values obtained from the reading at 550 nm were subtracted from those at 450 nm to correct the optical imperfections of the microplate.\nThe possible anti-inflammatory action of the individual components of Xinepa and the possible synergy were evaluated by measuring the levels of TNFα following stimulation with LPS. […]"}, "IL-1β [2]": {"system": "IL-1β", "assay": "ELISA of IL-1β after LPS, Example 3", "assay_type": "cell-based, human", "method": "as §1, §2, §3, §4\nThe standards, prepared on the basis of the instructions in the protocol and used for constructing the calibration curve, and the samples are added to the wells and the cytokine of interest binds the capture antibody immobilized on the bottom of the well. Next, the biotinylated anti-cytokine antibody is added to the wells so that the biotinylated antibody-antigen-antibody “sandwich” is formed. […] Addition of a solution of sulphuric acid turns the colour of the solution from blue to yellow, blocking the reaction and allowing accurate reading of the absorbance of the samples at 450 nm.\nThe absorbance was then read at 450 and 550 nm using a microplate reader (Tecan Sunrise). The values obtained from the reading at 550 nm were subtracted from those at 450 nm to correct the optical imperfections of the microplate. […]"}, "[3]": {"system": "ROS produced by the THP-1 cells", "assay": "ROS assay (H2DCF-DA, flow cytometry), Example 2", "assay_type": "cell-based, human", "conditions": "24 h treatment then H2O2 100 μM 2 h; concentrations indicated in Table 7", "method": "The antioxidant activity of the individual components and synergy between them was evaluated as efficiency of neutralization of the ROS produced by the THP-1 cells after application of an oxidizing agent: hydrogen peroxide (H2O2) at a concentration of 100 μM. The ROS were measured by the method described in Boulton S., Anderson A., Swalwell J., et al., 2011 Implications of using the fluorescent probes, dihydrorhodamine 123 and 2′,7′-dichlorodihydrofluorescein diacetate, for the detection of UV-A induced reactive oxygen species. […] The DCF produced is then quantified by reading with a flow cytometer and is proportional to the quantity of ROS present in the sample under examination. […]\nAfter removal of the H2DCF-DA solution, the cells were washed, collected and the fluorescence of the DCF was measured by analysis with a Coulter Epics XL flow cytofluorimeter. At least ten thousand cells were analysed for each sample and the mean fluorescence intensity was quantified by the XL2 software of the instrument.\nThe parameter considered is MFI, mean fluorescence intensity, i.e. the geometric mean of the fluorescence intensity of the cells in which H2DCF-DA has been transformed into the fluorescein-treated DCF form, which is proportional to the amount of ROS per sample. […]"}, "[4]": {"assay": "Solubility / dissolution of Xinepa and its ingredients"}, "THP-1 human monocytes": {"system": "THP-1 human monocytes", "conditions": "24 h", "excerpt": "(§5) The MTT assay is a colorimetric cytotoxicity assay that makes it possible to test cellular proliferation and vitality based on the efficiency of mitochondrial respiration. MTT (3-(4,5-dimethylthiazol-2-yl)-2,5-diphenyl tetrazolium bromide) is a tetrazolium salt that is reduced by the highly reducing environment in the mitochondria of living cells by the action of mitochondrial dehydrogenase. Reduction of MTT causes formation of crystals of formazan that give the characteristic purple coloration to the mitochondria of living cells. […] Thus, although it is a test that evaluates cellular respiration, the MTT assay is considered to be an excellent method for determining cellular vitality.\n(§6) As preparation for the test, the cells were sown uniformly in 96-well plates at a density of 5×10^4 cells per well and incubated at 37° C., with 5% CO2, and simultaneously, the cells were treated following serial dilutions (1:2) in order to identify the maximum non-cytotoxic concentration for each component.\n(§7) The treatment was carried out for 24 hours. At the end, after brief washing in PBS, 20 μl of MTT (stock 5 mg/ml) in PBS was added to the THP-1 cells for 2 hours at 37° C. At the end of the incubation time, after removal from the medium and washing in PBS, 100 μl of DMSO was added for solubilization of the formazan crystals. Spectrophotometric reading was performed with a microplate reader (Tecan Sunrise) at a wavelength of 570 nm. The cellular vitality was calculated by measuring the optical density of the concentrations tested relative to the control (untreated cells).\nas §5, with “leads to” for “causes”, “impart” for “give”, “regarded as” for “considered to be”\nas §6, with “CO2” for “CO2,”, “at the same time” for “simultaneously,”, “with” for “following”\nas §7, with “to dissolve” for “for solubilization of”"}, "THP-1 cell line": {"system": "THP-1 cell line", "conditions": "curcumin (Sigma, commercial); Hsu et al. 2008; cited from earlier work"}, "TNFα [5]": {"system": "TNFα", "assay": "ELISA assay (Assay 1a), release of TNFα", "assay_type": "cell-based, human", "conditions": "positive controls; LPS 1 μg/ml 2 h"}, "IL-1β [6]": {"system": "IL-1β", "assay": "ELISA assay (Assay 1a), release of IL-1β", "assay_type": "cell-based, human", "conditions": "positive controls; LPS 1 μg/ml 2 h"}, "THP-1 cells": {"system": "THP-1 cells", "assay": "MTT assay (Assay 0), cellular vitality", "assay_type": "cell-based, human", "conditions": "positive controls at 100 μM", "method": "The cells were kept in an incubator at 37° C. and 5% CO2 and sown every 3-4 days at a density of about 5×10^5 cells/ml.\nThis colorimetric assay is based on the transformation of tetrazolium salt MTT (yellow) to formazan (violet), by the reductase succinate-tetrazolium system, which belongs to the respiratory chain of the mitochondria and is only active in metabolically active cells. Briefly, the cells grown in a 96-well plate were incubated with the solution of MTT for 4 hours. […] The absorbance measured correlates directly with the number of live cells.\nTo exclude a possible toxic effect attributable to the incubation protocol selected, cellular vitality was quantified by the MTT assay."}, "[7]": {"system": "reactive oxygen species (ROS) in THP-1 cells", "assay": "Intracellular levels of ROS (Assay 2), CellROX Deep Red", "assay_type": "cell-based, human", "conditions": "positive control; 100 mM H2O2 2 h; not significantly different from its vehicle control", "method": "The operating principle of the probe is based on the fact that it is not fluorescent in the reduced state, whereas following oxidation it develops a fluorescent signal with excitation peak at 640 nm and emission peak at 665 nm. Briefly, at the end of the period of stimulation with H2O2, the cells were incubated with CellROX® Deep Red Reagent at a final concentration of 5 μM in the medium at 37° C. for 30 min. The nuclei were labelled with Hoechst33342 and the fluorescences of both channels (CellROX® Deep Red and DAPI) were read on the GloMax plate fluorometer (Promega Italy). The fluorescence signals relating to the ROS were normalized for the signal of Hoechst33342 to cancel the variability in the fluorescence signal read due to the number of cells present in each well.\nThe same plates were then also acquired in the confocal microscope for the purpose of obtaining representative images relating to quantifications of the various treatments."}, "[8]": {"conditions": "24-hour treatment and stimulation with LPS"}, "[9]": {"conditions": "relative to stimulated untreated cells (Ctrl + LPS = 100)"}},
  "note": "Entries after “also recorded” stand apart in the source; their conditions may differ. Read-outs that look alike come from different tables or passages of the source.",
  "data": [
    {"compound": "CC(=O)O[C@H](CC(=O)[O-])C[N+](C)(C)C", "note": "[Component C]", "values": [
      {"measurement": "levels of TNFα vs stimulated control", "setting": "TNFα [1]; [8]", "result": "levels lower than the stimulated control"},
      {"measurement": "TNFα", "setting": "TNFα [1]; 24 h treatment at non-cytotoxic concentrations, LPS 4 h, Ctrl + LPS 424.12", "result": 386.98, "unit": "pg/mL"},
      {"measurement": "TNFα (%)", "setting": "TNFα [1]; [9]", "result": 91.24, "unit": "%"},
      {"measurement": "levels of IL-1β vs stimulated control", "setting": "IL-1β [2]; [8]", "result": "increase"},
      {"measurement": "IL-1β", "setting": "IL-1β [2]; 24 h treatment at non-cytotoxic concentrations incl. LPS 4 h, Ctrl + LPS 4.84", "result": 4.98, "unit": "pg/mL"},
      {"measurement": "IL-1β (%)", "setting": "IL-1β [2]; [9]", "result": 102.91, "unit": "%"},
      {"measurement": "levels of ROS", "setting": "[3]", "result": "comparable to those of the positive control"},
      {"measurement": "dissolution in complete medium", "setting": "[4]; RPMI medium with 10% FBS, L-glutamine 2 mM and antibiotics", "result": "did not cause problems in dissolution; also recorded: did not cause problems of dissolution"},
      {"measurement": "Cellular vitality (%)", "setting": "THP-1 human monocytes; N-Acetyl-L-carnitine 0.25 mg/ml", "result": 102.221, "unit": "%"},
      {"measurement": "Cellular vitality (%)", "setting": "THP-1 human monocytes; N-Acetyl-L-carnitine 0.5 mg/ml", "result": 97.615, "unit": "%"},
      {"measurement": "Cellular vitality (%)", "setting": "THP-1 human monocytes; N-Acetyl-L-carnitine 1 mg/ml", "result": 90.355, "unit": "%"},
      {"measurement": "Cellular vitality (%)", "setting": "THP-1 human monocytes; N-Acetyl-L-carnitine 2 mg/ml", "result": 91.422, "unit": "%"},
      {"measurement": "Cellular vitality (%)", "setting": "THP-1 human monocytes; N-Acetyl-L-carnitine 4 mg/ml", "result": 60.848, "unit": "%"},
      {"measurement": "Maximum non-cytotoxic concentration", "setting": "THP-1 human monocytes; components A, B, C tested individually (lipoic acid, vitamin C, vitamin E acetate together as component B), mortality not greater than 30%", "result": 2, "unit": "mg/mL"},
      {"measurement": "Non-cytotoxic concentration", "setting": "THP-1 human monocytes; each component when tested together (A + B + C)", "result": 0.01, "unit": "mg/mL"}
    ]},
    {"compound": "O=C(O)CCCCC1CCSS1", "note": "(stereo not drawn) [Lipoic acid, Alpha-lipoic acid]", "values": [
      {"measurement": "Maximum non-cytotoxic concentration", "setting": "THP-1 human monocytes; human", "result": 0.3750, "unit": "mg/mL"}
    ]},
    {"compound": "COc1cc(/C=C/C(=O)CC(=O)/C=C/c2ccc(O)c(OC)c2)ccc1O", "note": "[curcumin, (1E,6E)-1,7-bis(4-hydroxy-3-methoxyphenyl)-hepta-1,6-diene-3,5-dione]", "values": [
      {"measurement": "non-cytotoxic concentration found for curcumin", "setting": "THP-1 cell line", "result": 10, "unit": "µM"}
    ]},
    {"compound": "CC(C)Cc1ccc(C(C)C(=O)O)cc1", "note": "(stereo not shown) [ibuprofen]", "values": [
      {"measurement": "release of TNFα relative to control", "setting": "TNFα [5]", "result": "did not cause any reduction"},
      {"measurement": "release of IL-1β relative to control", "setting": "IL-1β [6]", "result": "did not have any effect"},
      {"measurement": "toxicity on the cells (MTT)", "setting": "THP-1 cells", "result": "did not identify any effect of toxicity"}
    ]},
    {"compound": "CS(=O)(=O)Nc1ccc([N+](=O)[O-])cc1Oc1ccccc1", "note": "[nimesulide]", "values": [
      {"measurement": "release of TNFα relative to control", "setting": "TNFα [5]", "result": "showed anti-inflammatory action"},
      {"measurement": "release of IL-1β relative to control", "setting": "IL-1β [6]", "result": "effective in reducing the release of IL-1β"},
      {"measurement": "toxicity on the cells (MTT)", "setting": "THP-1 cells", "result": "did not identify any effect of toxicity"}
    ]},
    {"compound": "Cc1cc2nc3c(=O)[nH]c(=O)nc-3n(C[C@H](O)[C@H](O)[C@H](O)CO)c2cc1C", "note": "[vitamin B2, riboflavin]", "values": [
      {"measurement": "solubility of individual ingredients", "setting": "[4]; water vs alcohols or organic solvents", "result": "soluble in water but not in alcohols"}
    ]},
    {"compound": "tocopherol [vitamin E]", "values": [
      {"measurement": "antioxidant action (ROS levels)", "setting": "[7]", "result": "partial antioxidant action"}
    ]}
  ]
}
